# Reference: patent US9296759B2, “Amino-oxazine and amino-dihydrothiazine compounds as beta-secretase modulators and methods of use” (AMGEN INC., priority 2011, dated 2016)
# What was measured:
# [1] = target: Cathepsin D (Homo sapiens (Human), UniProt P07339); test: In vitro enzymatic Cat D (Cathepsin D) FRET assay; type: biochemical; details: average IC50
# Experimental: In Vitro Enzymatic Cat D (Cathepsin D) FRET (Fluorescence Resonance Energy Transfer) Assay
# Recombinant CathepsinD was expressed in CHO cells. The assay buffer for CathepsinD is 0.05 M citrate pH 3.5, 10% DMSO final, 5 mM CHAPS. […] The assays are effectively started by the addition of different FRET substrates (20 nM for CathepsinD) and the combination is incubated for one hour. The FRET assay is terminated with by addition of Tris buffer, which raises the pH to neutrality, and the fluorescence is determined. The FRET substrate is a peptide with commercially available fluorophore and quencher, on opposite sides of the BACE cleavage site. […] Proteolytic cleavage of the FRET substrate releases quenching of fluorescence (CathepsinD excitation 500 nm and emission 580 nm).
# [2] = target: BACE 1 (beta secretase enzyme) (Homo sapiens (Human), UniProt P56817); test: In vitro enzymatic BACE FRET assay; type: biochemical; details: average IC50
# Experimental: In Vitro Enzymatic BACE FRET (Fluorescence Resonance Energy Transfer) Assay
# The assay buffer used in this screen is 0.05 M acetate, pH 4.2, 10% DMSO final, 100 uM genapol (which is a nonionic detergent, below its Critical Micelle Concentration). […] This assay is effectively started by the addition of FRET substrate (50 nM) and the combination is incubated for one hour. The FRET assay is terminated with by addition of Tris buffer, which raises the pH to neutrality, and the fluorescence is determined. The FRET substrate is a peptide with commercially available fluorophore and quencher, on opposite sides of the BACE cleavage site. Proteolytic cleavage of the FRET substrate releases quenching of fluorescence (excitation […] and […]).
# [3] = tested on: Aβ40 in conditioned medium of cells stably expressing Amyloid Precursor Protein (APP); test: In vitro BACE cell-based assay (HEK cell assay, Aβ40 sandwich ELISA); details: Homo sapiens, HEK293; average IC50, Aβ40, 24 h incubation
# Experimental: In Vitro BACE Cell-Based Assay
# The cell-based assay measures inhibition or reduction of Aβ40 in conditioned medium of test compound treated cells expressing amyloid precursor protein.
# Cells stably expressing Amyloid Precursor Protein (APP) were plated at a density of 40K cells/well in 96 well plates (Costar). The cells were cultivated for 24 hours at 37° C. and 5% CO2 in DMEM supplemented with 10% FBS. The test compounds were then added to cells in 10-point dose response concentrations with the starting concentration being either 100 μM or 10 μM. The compounds were diluted from stock solutions in DMSO and the final DMSO concentration of the test compounds on cells was 0.1%. After 24 h of incubation with the test compounds the supernatant conditioned media was collected and the Aβ 40 levels were determined using a sandwich ELISA. The IC50 of the compound was calculated from the percent of control or percent inhibition of Aβ 40 as a function of the concentration of the test compound.
# The sandwich ELISA to detect Aβ 40 was performed in 96 well microtiter plates, which were pre-treated with goat anti-rabbit IgG (Pierce). The capture and detecting antibody pair that were used to detect Aβ 40 from cell supernatants were affinity purified pAb40 (Biosource) and biotinylated 6E10 (Signet Labs Inc.), respectively. The optimal concentration for the pAb40 antibody was 3 μg/ml in Superblock/TBS (Pierce) that was supplemented with 0.05% Tween 20 (Sigma).
# Cellular supernatants were incubated with the capture antibody for 3 h at 4° C., followed by 3 wash steps in TBS-tween (0.05%). The detecting antibody incubation was for 2 h at 4° C., again followed by the wash steps as described previously. The final readout of the ELISA is Time-Resolved Fluorescence (counts per minute) using Delfia reagents Streptavidin-Europium and Enhancement solutions (Perkin Elmer) and the Victor 2 multilabel counter (Perkin Elmer).
# Chain of BACE 1 (beta secretase enzyme) (P56817 46-501): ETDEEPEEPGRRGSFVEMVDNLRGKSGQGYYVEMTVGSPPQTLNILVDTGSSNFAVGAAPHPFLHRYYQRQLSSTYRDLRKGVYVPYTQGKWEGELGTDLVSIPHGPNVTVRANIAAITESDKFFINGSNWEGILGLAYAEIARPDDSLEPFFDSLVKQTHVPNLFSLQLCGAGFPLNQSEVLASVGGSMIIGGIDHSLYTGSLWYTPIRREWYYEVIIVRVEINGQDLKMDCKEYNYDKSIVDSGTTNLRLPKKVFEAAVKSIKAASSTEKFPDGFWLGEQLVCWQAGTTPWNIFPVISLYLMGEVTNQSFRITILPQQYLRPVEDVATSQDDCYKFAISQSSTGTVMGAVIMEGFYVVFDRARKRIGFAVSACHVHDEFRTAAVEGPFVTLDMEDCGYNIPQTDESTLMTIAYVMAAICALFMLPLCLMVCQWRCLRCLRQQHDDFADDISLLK
# Chain of Cathepsin D (P07339 65-412, species assumed): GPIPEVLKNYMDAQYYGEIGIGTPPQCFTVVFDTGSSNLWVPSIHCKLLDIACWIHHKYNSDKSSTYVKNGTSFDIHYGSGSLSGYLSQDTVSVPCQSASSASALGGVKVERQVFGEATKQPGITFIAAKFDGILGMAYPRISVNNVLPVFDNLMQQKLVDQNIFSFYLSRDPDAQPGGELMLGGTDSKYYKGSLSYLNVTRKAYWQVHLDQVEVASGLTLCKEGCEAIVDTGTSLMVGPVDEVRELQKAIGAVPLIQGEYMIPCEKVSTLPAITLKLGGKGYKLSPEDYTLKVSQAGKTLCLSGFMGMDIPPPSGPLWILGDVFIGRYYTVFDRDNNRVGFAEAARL
Compound,IC50 [1] [nM],IC50 [2] [nM],IC50 [3] [nM]
"NC1=N[C@@]2(CCO1)c1cc(NC(=O)c3ccc(Cl)cn3)ccc1Oc1cnc(Cl)cc12 [Example 79, N-((5S)-2′-amino-3-chloro-5′,6′-dihydrospiro[chromeno[2,3-c]pyridine-5,4′-[1,3]oxazin]-7-yl)-5-chloro-2-pyridinecarboxamide]",400000,38.6,9.9
"NC1=N[C@@]2(CCO1)c1cc(NC(=O)c3ccc(F)cn3)ccc1Oc1c2cc(C2=CCCOC2)nc1F [Example 83, N-((5S)-2′-amino-3-(5,6-dihydro-2H-pyran-3-yl)-1-fluoro-5′,6′-dihydrospiro[chromeno[2,3-c]pyridine-5,4′-[1,3]oxazin]-7-yl)-5-fluoro-2-pyridinecarboxamide]",255000,9.3,0.4
"COc1cnc(C(=O)Nc2ccc3c(c2)[C@@]2(CCOC(N)=N2)c2cc(C#CC(C)(C)C)ncc2O3)cn1 [Example 86, N-((5S)-2′-amino-3-(3,3-dimethyl-1-butyn-1-yl)-5′,6′-dihydrospiro[chromeno[2,3-c]pyridine-5,4′-[1,3]oxazin]-7-yl)-5-methoxy-2-pyrazinecarboxamide]",452000,12,1.2
"COc1cnc(C(=O)Nc2ccc3c(c2)[C@@]2(CCOC(N)=N2)c2cc(-c4ccnc(F)c4)ncc2O3)cn1 [Example 93, N-((5S)-2′-amino-3-(2-fluoro-4-pyridinyl)-5′,6′-dihydrospiro[chromeno[2,3-c]pyridine-5,4′-[1,3]oxazin]-7-yl)-5-methoxy-2-pyrazinecarboxamide]",400000,2.9,0.5
"NC1=N[C@@]2(CCO1)c1cc(NC(=O)c3ccc(Cl)cn3)ccc1Oc1cnc(-c3ccnc(F)c3)cc12 [Example 94, N-((5S)-2′-amino-3-(2-fluoro-4-pyridinyl)-5′,6′-dihydrospiro[chromeno[2,3-c]pyridine-5,4′-[1,3]oxazin]-7-yl)-5-chloro-2-pyridinecarboxamide]",400000,1.6,0.7
"N#Cc1ccc(C(=O)Nc2ccc3c(c2)[C@@]2(CCOC(N)=N2)c2cc(-c4ccnc(F)c4)nc(F)c2O3)nc1 [Example 100, N-((5S)-2′-amino-1-fluoro-3-(2-fluoro-4-pyridinyl)-5′,6′-dihydrospiro[chromeno[2,3-c]pyridine-5,4′-[1,3]oxazin]-7-yl)-5-cyano-2-pyridinecarboxamide]",518000,0.6,0.4
"COc1cnc(C(=O)Nc2ccc3c(c2)[C@@]2(CCSC(N)=N2)c2cc(C4=CCOCC4)ncc2O3)cn1 [Example 103, N-((5S)-2′-amino-3-(3,6-dihydro-2H-pyran-4-yl)-5′,6′-dihydrospiro[chromeno[2,3-c]pyridine-5,4′-[1,3]thiazin]-7-yl)-5-methoxy-2-pyrazinecarboxamide]",400000,1.7,1.1
"COc1ccc(C(=O)Nc2ccc3c(c2)[C@@]2(CCSC(N)=N2)c2cc(O)cc(F)c2O3)nc1 [Example 105, N-((4S)-2-amino-5′-fluoro-7′-hydroxy-5,6-dihydrospiro[1,3-thiazine-4,9′-xanthen]-2′-yl)-5-methoxy-2-pyridinecarboxamide]",225000,29.4,82.3
"COc1ccc(C(=O)Nc2ccc3c(c2)[C@@]2(CCSC(N)=N2)c2cc(N4CCOCC4)cc(F)c2O3)nc1 [Example 107, N-((4S)-2-amino-5′-fluoro-7′-(4-morpholinyl)-5,6-dihydrospiro[1,3-thiazine-4,9′-xanthen]-2′-yl)-5-methoxy-2-pyridinecarboxamide]",326000,7.8,8.7
"COc1cnc(C(=O)Nc2ccc3c(c2)[C@@]2(CCSC(N)=N2)c2cc(O)cc(F)c2O3)cn1 [Example 109, N-((4S)-2-amino-5′-fluoro-7′-hydroxy-5,6-dihydrospiro[1,3-thiazine-4,9′-xanthen]-2′-yl)-5-methoxy-2-pyrazinecarboxamide]",400000,28.4,64.6
"COc1cnc(C(=O)Nc2ccc3c(c2)[C@@]2(CCSC(N)=N2)c2cc(N4CCOCC4)cc(F)c2O3)cn1 [Example 110, N-((4S)-2-amino-5′-fluoro-7′-(4-morpholinyl)-5,6-dihydrospiro[1,3-thiazine-4,9′-xanthen]-2′-yl)-5-methoxy-2-pyrazinecarboxamide]",229000,15.3,7.7
"COc1ccc(C(=O)Nc2ccc3c(c2)[C@@]2(CCSC(N)=N2)c2cc(-c4cncc(F)c4)nc(F)c2O3)nc1 [Example 113, N-((5S)-2′-amino-1-fluoro-3-(5-fluoro-3-pyridinyl)-5′,6′-dihydrospiro[chromeno[2,3-c]pyridine-5,4′-[1,3]thiazin]-7-yl)-5-methoxy-2-pyridinecarboxamide]",120000,1.1,1.8
"COc1cnc(C(=O)Nc2ccc3c(c2)[C@@]2(CCSC(N)=N2)c2cc(-c4ccnc(F)c4)nc(F)c2O3)cn1 [Example 114, N-((5S)-2′-amino-1-fluoro-3-(2-fluoro-4-pyridinyl)-5′,6′-dihydrospiro[chromeno[2,3-c]pyridine-5,4′-[1,3]thiazin]-7-yl)-5-methoxy-2-pyrazinecarboxamide]",400000,3.1,3.8
"COc1ccc(C(=O)Nc2ccc3c(c2)[C@@]2(CCSC(N)=N2)c2cc(-c4ccnc(F)c4)nc(F)c2O3)nc1 [Example 115, N-((5S)-2′-amino-1-fluoro-3-(2-fluoro-4-pyridinyl)-5′,6′-dihydrospiro[chromeno[2,3-c]pyridine-5,4′-[1,3]thiazin]-7-yl)-5-methoxy-2-pyridinecarboxamide]",162000,0.4,2.2
"NC1=N[C@@]2(CCS1)c1cc(NC(=O)c3ccc(F)cn3)ccc1Oc1c2cc(-c2ccnc(F)c2)nc1F [Example 118, N-((5S)-2′-amino-1-fluoro-3-(2-fluoro-4-pyridinyl)-5′,6′-dihydrospiro[chromeno[2,3-c]pyridine-5,4′-[1,3]thiazin]-7-yl)-5-fluoro-2-pyridinecarboxamide]",400000,1.5,4.2
"NC1=N[C@@]2(CCS1)c1cc(NC(=O)c3ncc(Cl)cc3F)ccc1Oc1c2cc(C2=CCOCC2)nc1F [Example 119, N-((5S)-2′-amino-3-(3,6-dihydro-2H-pyran-4-yl)-1-fluoro-5′,6′-dihydrospiro[chromeno[2,3-c]pyridine-5,4′-[1,3]thiazin]-7-yl)-5-chloro-3-fluoro-2-pyridinecarboxamide]",311000,2.6,0.6
"Cc1cc(Br)cnc1C(=O)Nc1ccc2c(c1)[C@@]1(CCSC(N)=N1)c1cc(C3=CCOCC3)nc(F)c1O2 [Example 120, N-((5S)-2′-amino-3-(3,6-dihydro-2H-pyran-4-yl)-1-fluoro-5′,6′-dihydrospiro[chromeno[2,3-c]pyridine-5,4′-[1,3]thiazin]-7-yl)-5-bromo-3-methyl-2-pyridinecarboxamide]",88300,1.4,0.5
"COc1cnc(C(=O)Nc2ccc3c(c2)[C@@]2(CCSC(N)=N2)c2cc(C4=CCOCC4)nc(F)c2O3)c(C)c1 [Example 121, N-((5S)-2′-amino-3-(3,6-dihydro-2H-pyran-4-yl)-1-fluoro-5′,6′-dihydrospiro[chromeno[2,3-c]pyridine-5,4′-[1,3]thiazin]-7-yl)-5-methoxy-3-methyl-2-pyridinecarboxamide]",159000,5.4,1.8
